Results published in US12458702B2 (NATIONAL TAIWAN UNIVERSITY, priority 2022, dated 2025).
Entries after “also recorded” stand apart in the source; their conditions may differ. Where two headings read alike, the source gives them in different places. One block for each compound: values may come before it.

Legend:
NHDF = test: Cytotoxicity by SRB assay in low GLUT-1 normal cell line NHDF; type: cell-based; settings: Homo sapiens, low expression GLUT-1 normal cell line
Method: (§1) The fraction of cell survival was calculated as follows. Survival fraction=(OD treated−blank)/(OD control−blank). […] Each experiment was repeated three times.

[1] = system: orthotopic CRC mice model; test: Orthotopic AOM/DSS-induced CRC mice model, tumor area; type: in vivo, BALB/c mice
Method: Azoxymethane (AOM)-induced murine CRC model was applied to model human CRC. BALB/c mice (6 weeks of age, male) were intraperitoneally (i.p.) injected once every two weeks with AOM (10 mg/kg body weight) or the PBS vehicle. Seven days after each AOM injection, 2% dextran sulfate sodium (DSS) was given in the drinking water for four days, followed by 3 days of regular water. This cycle was repeated three times. The mice were randomly divided into eight groups (n=5), on day 60 after the first AOM treatment. […] Tumor volumes and body weights were recorded at sacrifice. The tumors were counted under a dissecting microscope, and the area covered by tumors was measured by imaging software (AxioVision LE 4.8.2.0).

[2] = Body weight changes in the CRC mice model; type: in vivo, BALB/c mice; settings: for body weight change, in words: during treatment in CRC mice model
Method: Azoxymethane (AOM)-induced murine CRC model was applied to model human CRC. BALB/c mice (6 weeks of age, male) were intraperitoneally (i.p.) injected once every two weeks with AOM (10 mg/kg body weight) or the PBS vehicle. Seven days after each AOM injection, 2% dextran sulfate sodium (DSS) was given in the drinking water for four days, followed by 3 days of regular water. This cycle was repeated three times. The mice were randomly divided into eight groups (n=5), on day 60 after the first AOM treatment. […] Irinotecan (20 mg/kg), compound 31 (20 mg/kg), and irinotecan+compound 17 (20 mg/kg of irinotecan and 14 mg/kg of compound 17) were injected i.p. q.o.d for two weeks. […] Tumor volumes and body weights were recorded at sacrifice. The tumors were counted under a dissecting microscope, and the area covered by tumors was measured by imaging software (AxioVision LE 4.8.2.0).

[3] = Plasma pharmacokinetics in mice (UPLC-MS/MS); type: in vivo, BALB/c mice; settings: for T. of 5-FU: 5-FU measured in plasma
Method: (§2) In the following PK experiments, BALB/c mice (six weeks of age, male) were randomly divided into two groups (n=3). […] Blood samples were collected via femoral vein by syringes at 0, 1, 3, 5, 10, 15, 30, 45 min, 1, 2, 4, and 24 h after drug administration. 50 μL blood samples were collected into 100 μL extraction solvent (EtOAc/MeOH=1:1) and vortex for 30 sec. The supernatants were separated from the mixture by centrifugation at 10,000 rpm for 10 min and frozen at −30° C. pending UPLC-MS/MS analysis. For bio-distribution experiments, the entire dissected organs were placed into round-bottom after weighting, two-milliliter microcentrifuge tubes with 1 mL of extraction solvent (EtOAc/MeOH=1:1) and 7 mm stainless steel beads, then homogenized for 30 min. All of the containers were maintained at 4° C. throughout the process. The supernatants were separated from the mixture by centrifugation at 10,000 rpm for 10 min and frozen at −30° C. The 200 μL solvent from crude organ suspensions was removed by the dryer and then dissolved in 50 μL extraction solvent. All samples were stored at −30° C. and analyzed within 24 h. All of the samples were filtered through 0.22 μm PTFE membranes into 12×32 mm vials for UPLC-MS/MS analyses using 5-FU-^15N2 as a marker. Pharmacokinetic parameters were calculated using the WinNonlin Software (version 5.2, Pharsight, MO, USA.)
(§3) Analyses were performed on an ACQUITY UPLC I-Class/Xevo TQ-XS IVD System (Waters, Milford, MA, USA) from College of Public Health, National Taiwan University. The reverse phase BEH C18 (100 mm×2.1 mm, 1.7 μm, Waters) and VanGuard BEH C18 (5 mm×2.1 mm, 1.7 μm, Waters) precolumns were used to separate the analytes. All data were acquired by MassLynx V4.2. The mobile phase consisted of a 10 mM aqueous solution of ammonium acetate (A) and acetonitrile (B), set as follows: 0.00 min 98% A→1.00 min 98% A→3.00 min 10% A→4.50 min 10% A→4.60 min 98% A→6.00 min 98% A; at a rate of 0.5 mL/min for 6.00 min with 4 μL per injection. The column oven was maintained at 60° C. Multiple reaction monitoring (MRM) method was applied in quantification. Mass spectrometer parameters were as follows: capillary voltage, 3.0 kV/3.0 kV, respectively, for positive/negative ion mode; ion source temperature, 120° C.; desolvation temperature, 450° C.; cone gas flow (N2), 50 L/h; desolvation gas flow (N2), 700 L/h; multiplier, 650 V; and collision gas pressure (Ar), 3−4×10^−3 mbar.

[4] = Organ biodistribution in mice (UPLC-MS/MS); type: in vivo, BALB/c mice; settings: 1 hour post i.p. injection; for organ distribution of 5-FU, in words: compound 7 50 mg/kg, free 5-FU 9.5 mg/kg
Method: as §2
as §3, with “Mass spectrometer parameters were as follows: capillary voltage, 3.0 kV/3.0 kV, respectively, for positive/negative ion mode; ion source temperature, 120° C.; desolvation temperature, 450° C.; cone gas flow (N2), 50 L/h; desolvation gas flow (N2), 700 L/h; multiplier, 650 V; and collision gas pressure (Ar), 3−4×10^−3 mbar.” left out

[5] = system: metastatic colorectal cancer; settings: cited from earlier work
HCT-116 = test: Cytotoxicity by SRB assay in HCT-116 cells; type: cell-based, human
Method: as §1

[6] = Human plasma stability (RP-HPLC); type: in vitro ADME; settings: 95% human plasma, 37° C.
Method: To access human plasma stability, synthesized conjugates were prepared in 95% human plasma. […] The mixture was centrifuged at 13,000 rpm for 5 min. […] For compounds 30 and 31, they were dissolved in DMA and added GSH (11.2 mM or 11.2 μM) solution which was prepared in sodium acetate buffer (10 mM, pH 5.0) in the ratio of 50/40 (v/v, drug in DMA/GSH solution) for final GSH of 5 mM or 5 μM in pH 7.0, respectively. After incubation for the indicated time, samples were centrifuged to collect the clear supernatant and stored at −30° C. until analysis. RP-HPLC injections were carried out at the specified conditions, and the area of peak was integrated for further calculation.

[7] = Stability and drug release in GSH (RP-HPLC); type: in vitro ADME
Method: […] After incubation for the indicated time, samples were centrifuged to collect the clear supernatant and stored at −30° C. until analysis. RP-HPLC injections were carried out at the specified conditions, and the area of peak was integrated for further calculation.

HT-29 = test: Cytotoxicity by SRB assay in HT-29 cells
Method: Cancer cell lines were obtained from ATCC unless otherwise noted. HT-29 and HCT-116 cells were cultured in Dulbecco's Modified Eagle Medium (DMEM, Thermo Fisher Scientific) with 10% fetal bovine serum (FBS, Thermo Fisher Scientific) and 1% antibiotic-antimycotic (Thermo Fisher Scientific).
Briefly, CRC cells were seeded at a density of 5×10^3 cells/well in 96-well microtiter plates (100 μL/well), separated into two groups with or without GSH. After incubation for 24 hours, the culture medium was replaced by fresh medium (100 μL). […] After incubation, 10% cold trichloroacetic acid was gently added to each well and incubated at 4° C. for 1 h. The medium was removed, carefully washed with water, and dried at room temperature. […] The optical density (O.D.) was measured at 510 nm with Multi-Mode Microplate Reader (SpectraMax Paradigm, Beckman Coulter, U.S.). The fraction of cell survival was calculated as follows. Survival fraction=(OD treated−blank)/(OD control−blank). […] Each experiment was repeated three times.

[8] = system: CRC cell lines HCT-116 and HT-29; test: Cytotoxicity against CRC cell lines, summary over both lines (SRB assay); type: cell-based, human; settings: for cytotoxicity against CRC cell lines, in words: HCT-116 and HT-29, with or without GSH
Method: as §1

pH stability analysis = type: physicochemical
[9] = 5-FU series, 50 mg/kg i.p. once every 3 days for 3 weeks
[10] = Homo sapiens, HCT-116, 48 h, w/o GSH, read-out: IC50 HCT-116 w/o GSH
[11] = Homo sapiens, HT-29, 48 h, read-out: IC50 HT-29 5 mM GSH
[12] = Homo sapiens, HT-29, 48 h, read-out: IC50 HT-29 w/o GSH

T. of 5-FU ([3]; i.p. injection): 10 min
SMILES: O=c1[nH]cc(F)c(=O)[nH]1 [5-FU, 5-fluorouracil, reference compound]
IC50 (NHDF): 70.4 ± 7.2 µM | reduction of tumor volume [1, 9]: 33% | loss of body weight ([2]; free 5-FU 50 mg/kg i.p., after injection): about 10% | organ distribution of 5-FU, in words [4]: distributed in stomach, spleen, and kidney | mean response rate of patients ([5]; 5-FU-based chemotherapy): approximately 23%

half-life in human plasma [6]: 13 h | degradation after 48 h ([7]; 5 μM GSH, 48 h): 30% | cleavage percentage after 4 hours ([7]; 1 mM GSH): ~10% | cleavage percentage after 4 hours ([7]; 5 mM GSH): up to 60% | half-life at 2.5 mM ([7]; PBS containing 1 mM GSH, pH 7.4, half-life at 1 mM GSH, 1 mM GSH, PBS pH 7.4): 618 min | half-life at 2.5 mM ([7]; PBS containing GSH, pH 7.4, highly reductive environments, read-out: half-lives in highly reductive environments): < 300 min | plasma concentration of compound 7 after 5 min, in words ([3]; i.p. 50 mg/kg): below the detection limit | plasma concentration of 5-FU after 2 h, in words ([3]; i.p. injection): undetectable | T. of 5-FU ([3]; i.p. injection): 45 min | time within which 5-FU released from compound 7 was detected in blood ([3]; i.v. 50 mg/kg): ≤ 2 h | plasma concentration of compound 7 after 30 min, in words ([3]; i.v. 50 mg/kg, lower detection limit=0.003 μg/mL, detectable again after 45 min and 4 h): undetectable
SMILES: O=C(CCCSSCCOCCOCCOc1cc(O)c(C(=O)CCc2ccc(O)cc2)c(O)c1)OCn1cc(F)c(=O)[nH]c1=O [Compound 7, (5-Fluoro-2,4-dioxo-3,4-dihydropyrimidin-1(2H)-yl)methyl 4-((2-(2-(2-(3,5-dihydroxy-4-(3-(4-hydroxyphenyl)propanoyl)phenoxy)ethoxy)ethoxy)ethyl)disulfanyl)butanoate]
IC50 (HCT-116; Homo sapiens, HCT-116, read-out: IC50 HCT-116 5 mM GSH, 48 h, 5 mM GSH): 10500 nM | IC50 (HCT-116; [10]): 21200 ± 1690 nM | IC50 (NHDF): 90 ± 2.6 µM | reduction of tumor volume [1, 9]: 67% | tumor suppression (tumor area), in words ([1]; 5-FU series, i.p. once every three days for three weeks, compound 7 and 5-FU 50 mg/kg, 5-FU 10 mg/kg + compound 17 30 mg/kg): better tumor suppression than 5-FU | body weight change, in words [2]: without body weight loss; also recorded: no significant change in the body weight | organ distribution of the compound, in words ([4]; 50 mg/kg): distributed in the stomach, colon, heart, and liver | organ distribution of 5-FU, in words [4]: detected mainly in colon, with small amounts in the kidney and stomach | IC50 (HT-29; [11]): 3.8 µM | IC50 (HT-29; [12]): 19.6 ± 3.86 µM

SMILES: O=C(CCc1cn(CCOCCOCCOc2cc(O)c(C(=O)CCc3ccc(O)cc3)c(O)c2)nn1)OCn1cc(F)c(=O)[nH]c1=O [Compound 9]
IC50 (HCT-116; [10]): > 100000 nM | cytotoxicity against CRC cell lines, in words [8]: poorly cytotoxic | half-life [6]: 216 min | release of 5-FU, in words ([7]; 5 mM GSH, after 48 h): Little 5-FU was released | pH stability, in words (pH stability analysis; pH 4-5): stable | pH stability, in words (pH stability analysis; pH >7): prone to fully degrade | IC50 (HT-29; [12]): 85 ± 9.1 µM

SMILES: CCc1c2c(nc3ccc(OC(=O)OCCSSCCOCCOCCOc4ccc(O)c(C(=O)CCc5ccc(O)cc5)c4O)cc13)-c1cc3c(c(=O)n1C2)COC(=O)[C@]3(O)CC [Compound 31, (S)-4,11-diethyl-4-hydroxy-3,14-dioxo-3,4,12,14-tetrahydro-1H-pyrano[3′,4′:6,7]indolizino[1,2-b]quinolin-9-yl(2-((2-(2-(2-(2,4-dihydroxy-3-(3-(4-hydroxyphenyl)propanoyl)phenoxy)ethoxy)eyhoxy)ethyl)disulfanyl)ethyl) carbonate]
IC50 (HCT-116; 72 h, prepared in DMA, w/o GSH, read-out: IC50 HCT-116 w/o GSH): 2.87 ± 0.19 nM | IC50 (HCT-116; read-out: IC50 HCT-116 5 mM GSH, 72 h, prepared in DMA, 5 mM GSH): 2.59 ± 0.12 nM | cytotoxicity against CRC cell lines, in words [8]: less or similar cytotoxicity | half-life in human plasma [6]: 0.833 h | degraded after 48 h ([7]; 0 and 5 μM GSH, 48 h): 10% | degraded to SN-38 after 48 h ([7]; 5 mM GSH, 48 h): over 90% | reduction of tumor volume ([1]; SN-38 series, 20 mg/kg i.p. once every two days for two weeks): 70% | anti-tumor efficacy (tumor area), in words ([1]; SN-38 series, i.p. once every two days for two weeks, 20 mg/kg, irinotecan 20 mg/kg + compound 17 14 mg/kg): better anti-tumor efficacy than irinotecan | body weight change, in words [2]: did not decrease the body weight; also recorded: no significant change in the body weight | IC50 (HT-29; read-out: IC50 HT-29 5 mM GSH, 48 h, prepared in DMA, 5 mM GSH): 0.0114 ± 0.00103 µM | IC50 (HT-29; read-out: IC50 HT-29 w/o GSH, 48 h, prepared in DMA, w/o GSH): 0.0163 ± 0.00131 µM

SMILES: CCc1c2c(nc3ccc(OC(=O)N4CCC(N5CCCCC5)CC4)cc13)-c1cc3c(c(=O)n1C2)COC(=O)[C@]3(O)CC [Irinotecan (39), irinotecan, reference compound]
IC50 (HCT-116; Homo sapiens, HCT-116, read-out: IC50 HCT-116 5 mM GSH, 72 h, prepared in DMA, 5 mM GSH): 320 ± 20 nM | IC50 (HCT-116; Homo sapiens, HCT-116, 48 h, prepared in DMSO, read-out: IC50 HCT-116): 3690 ± 240 nM | IC50 (HCT-116; Homo sapiens, HCT-116, 72 h, prepared in DMA, w/o GSH, read-out: IC50 HCT-116 w/o GSH): 360 ± 10 nM | IC50 ([8]; Homo sapiens, HCT-116 and HT-29, over Tables 1 to 3, read-out: IC50 in CRC cells): 0.3 to 8.5 µM | response rate ([5]; phase II, single-agent, patients resistant to fluorouracil): about 27% | IC50 (HT-29; Homo sapiens, HT-29, 48 h, read-out: IC50 HT-29): 8.51 ± 1.86 µM | IC50 (HT-29; [11]): 6.44 ± 0.3 µM | IC50 (HT-29; [12]): 5.61 ± 0.11 µM
